Results published in patent US12139481B2, “Compositions comprising macrocycle derivatives incorporating bridged macrocycles and methods of producing and using same” (Southwestern Oklahoma State University, priority 2015, dated 2024).

Assays:
[1] = system: Staphylococcus aureus ATCC 29213; test: Antibacterial broth dilution assay against S. aureus (modified CLSI); assay type: cell-based; details: for S. aureus IC50 / IC50: in vitro; for IC50: converted with molecular weight; for X more potent than ciprofloxacen: molar IC50 ratio versus ciprofloxacen
Experimental: (§1) General Experimental Procedures. All organisms were obtained from the American Type Culture Collection (Manassas, VA) and include the fungi Candida albicans ATCC 90028, C. glabrata ATCC 90030, C. krusei ATCC 6258, and Cryptococcus neoformans ATCC 90113, and the bacteria Staphylococcus aureus ATCC 29213 and methicillin-resistant S. aureus ATCC 33591 (MRS). All organisms were tested using modified versions of the CLSI (formerly NCCLS) methods. For all organisms, optical density was used to monitor growth (NCCLS, Reference Method for Broth Dilution Antifungal Susceptibility Testing of Yeasts; Approved Standard M27-A2. National Committee on Clinical Laboratory Standards, 2002 22 (15); and NCCLS, Methods for Dilution Antimicrobial Susceptibility Tests for Bacteria that Grow Aerobically; Approved Standard, Seventh Edition M7-A7. National Committee on Clinical Laboratory Standards, 2006. 26(2)).
(§2) Samples (dissolved in DMSO) were serially-diluted in 20% DMSO/saline and transferred (10 μL) in duplicate to 96 well flat bottom microplates. Inocula were prepared by correcting the OD630 of microbe suspensions in incubation broth [RPMI 1640/0.2% dextrose/0.03% glutamine/MOPS @ pH 6.0 (Cellgro) for Candida spp., Sabouraud Dextrose for C. neoformans, and cation-adjusted Mueller-Hinton (Difco) @ pH 7.3 for Staphylococcus spp. to afford an assay volume of […] and final target inocula of: Candida spp. and C. neoformans: 1.5×10^3, and Staphylococcus spp.: 5.0×10^5 CFU/ml. Final sample test concentrations were 1/100th the DMSO stock concentration. […] All organisms were read at either 530 nm using the Biotek Powerwave XS plate reader (Bio-Tek Instruments, Vermont) prior to and after incubation: Candida spp. at 35° C. for 46-50 h, Staphylococcus spp. at 35° C. for 16-20 h, and C. neoformans at 35° C. for 70-74 h. IC50s (concentrations that afford 50% inhibition relative to controls) were calculated using XLfit 4.2 software (IDBS, Alameda, CA) using fit model 201. The MIC is defined as the lowest test concentration that allows no detectable growth. Minimum fungicidal or bactericidal concentrations were determined by removing 5 μl from each clear (or blue) well, transferring to fresh media, and incubating as previously mentioned. The MFC/MBC is defined as the lowest test concentration that kills the organism (allows no growth).
(§3) Primary Analysis. Samples were tested in duplicate at one test concentration (50 μg/mL), and percent inhibitions were calculated relative to blank and growth controls. Samples showing 50% inhibition in at least one test organism were selected for dose response (Secondary) studies.
(§4) Secondary Analysis. Extracts from the Primary Assay, and first-run pure compounds and column fractions were tested in duplicate at 3 test concentrations (5-fold dilutions). Samples dissolved to 20 mg/mL in DMSO were tested at 200, 40, and 8 μg/mL. Samples dissolved to 2 mg/mL in DMSO were tested at 20, 4, and 0.8 μg/mL.

[2] = system: methicillin-resistant S. aureus ATCC 33591 (MRS); test: Antibacterial broth dilution assay against MRSA (modified CLSI); assay type: cell-based, Staphylococcus aureus; details: for MRSa IC50 / IC50: in vitro; for IC50: converted with molecular weight; for X more potent than ciprofloxacen: molar IC50 ratio versus ciprofloxacen
Experimental: as §1, §2, §3, §4

[3] = system: L. donovani promastigotes; test: Antileishmanial Alamar Blue assay on promastigotes; assay type: cell-based, Leishmania donovani; details: for X more potent than Pentamidine: L. donovani, ratio of molar IC50 to Pentamidine; for L. donovani IC50 / IC50: promastigotes, 48 hours, Alamar Blue; for IC50: read-out: L. donavani IC50
Method in brief: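 L. donovani promastigotes in RPMI 1640 with 10% FCS, from 3-day culture, were set at 5×10^5/mL and exposed to compound (50-3.1 μg/mL) for 48 hours at 26° C. Growth read by Alamar Blue fluorescence (ex 544/em 590 nm); IC50 from percent growth versus concentration.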

[4] = system: Cryptococcus neoformans ATCC 90113; test: Antimicrobial microdilution assay against Cryptococcus neoformans (modified CLSI/NCCLS, optical density); assay type: cell-based; details: for X more potent than Amphotericin B: C. neoformans, ratio of molar IC50 to Amphotericin B; for C. neoformans IC50 / IC50: in vitro, C. neoformans ATCC 90113; for IC50: read-out: C. neoformans IC50 (mol/L)
Method in brief: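 Broth microdilution (modified CLSI) in RPMI pH 6.0, samples serially diluted in 20% DMSO/saline and tested in duplicate, growth followed by OD630 before and after incubation. MFC is the lowest concentration giving no growth when 5 μL from clear wells is plated on agar.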

C. krusei ATCC 6258 = test: Antifungal broth dilution assay against C. krusei (modified CLSI); assay type: cell-based, Candida krusei
Experimental: as §1, §2, §3, §4

C. glabrata ATCC 90030 = test: Antifungal broth dilution assay against C. glabrata (modified CLSI); assay type: cell-based, Candida glabrata
Method in brief: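 Modified CLSI broth microdilution with OD monitoring before and after incubation at 35 °C: Candida in RPMI 1640/MOPS pH 6.0, 1.5×10^3 CFU/ml, 46-50 h; Staphylococcus in cation-adjusted Mueller-Hinton pH 7.3, 5.0×10^5 CFU/ml, 16-20 h. IC50 from curve fit; MIC is the lowest concentration with no growth; MFC/MBC from subculture.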

Compound: c1ccc(CN2CCN3CCN(CC2)CCN(Cc2ccccc2)CC3)cc1 [ANCl4]
- S. aureus IC50 [1]: 8.810 µg/mL
- IC50 [1]: 23.3 µM
- X more potent than ciprofloxacen [1]: 0.01
- MRSa IC50 [2]: 8.570 µg/mL
- IC50 [2]: 22.6 µM
- X more potent than ciprofloxacen [2]: 0.01

Compound: CC(=O)[O-].F[P-](F)(F)(F)(F)F.[Co+2].c1ccc(CN2CCCN3CCCN(CCCN(Cc4ccccc4)CC3)CC2)cc1 [DJD21, [Co(Bn2PBCyclam)(OAc)]PF6]
- X more potent than Pentamidine [3]: 0.26
- L. donovani IC50 [3]: 14.12 µg/mL
- IC50 [3]: 20.7 µM
- S. aureus IC50 [1]: 3.590 µg/mL
- IC50 [1]: 5.25 µM
- X more potent than ciprofloxacen [1]: 0.05
- MRSa IC50 [2]: 3.710 µg/mL
- IC50 [2]: 5.43 µM
- X more potent than ciprofloxacen [2]: 0.04
- X more potent than Amphotericin B [4]: 0.05
- C. neoformans IC50 [4]: 3.510 µg/mL
- IC50 [4]: 5.13 µM

Compound: CC(=O)[O-].F[P-](F)(F)(F)(F)F.[Zn+2].c1ccc(CN2CCCN3CCCN(CCCN(Cc4ccccc4)CC3)CC2)cc1 [DJD23, [Zn(Bn2PBCyclam)(OAc)]PF6]
- X more potent than Pentamidine [3]: 0.85
- L. donovani IC50 [3]: 4.32 µg/mL
- S. aureus IC50 [1]: 6.530 µg/mL
- X more potent than ciprofloxacen [1]: 0.03
- MRSa IC50 [2]: 3.210 µg/mL
- X more potent than ciprofloxacen [2]: 0.05
- X more potent than Amphotericin B [4]: 0.08
- C. neoformans IC50 [4]: 1.990 µg/mL

Compound: c1cc(CN2CCN3CCNCCN(CC3)CC2)ccc1CN1CCN2CCNCCN(CC2)CC1 [JGL19, p-CB-H2Bcyclens]
- X more potent than Pentamidine [3]: 0.31
- L. donovani IC50 [3]: 8.54 µg/mL
- IC50 [3]: 17.1 µM
- S. aureus IC50 [1]: 2.900 µg/mL
- IC50 [1]: 5.81 µM
- X more potent than ciprofloxacen [1]: 0.05
- MRSa IC50 [2]: 1.060 µg/mL
- IC50 [2]: 2.12 µM
- X more potent than ciprofloxacen [2]: 0.10
- X more potent than Amphotericin B [4]: 0.20
- C. neoformans IC50 [4]: 0.590 µg/mL
- IC50 [4]: 1.18 µM

Compound: c1ccc(CN2CCCN3CCCN(CCCN(Cc4ccccc4)CC3)CC2)cc1 [SLK09, Bn2PBCyclam]
- X more potent than Pentamidine [3]: 0.87
- L. donovani IC50 [3]: 2.56 µg/mL
- IC50 [3]: 6.09 µM
- S. aureus IC50 [1]: 2.270 µg/mL
- IC50 [1]: 5.4 µM
- X more potent than ciprofloxacen [1]: 0.05
- MRSa IC50 [2]: 4.960 µg/mL
- IC50 [2]: 11.8 µM
- X more potent than ciprofloxacen [2]: 0.02
- X more potent than Amphotericin B [4]: 0.11
- C. neoformans IC50 [4]: 0.910 µg/mL
- IC50 [4]: 2.16 µM

Compound: [Co2(m-cyclam-homocyclen)(OAc)2][PF6]2 [AW049]
- X more potent than Pentamidine [3]: 0.34
- L. donovani IC50 [3]: 16.93 µg/mL
- IC50 [3]: 15.5 µM
- S. aureus IC50 [1]: 5.600 µg/mL
- IC50 [1]: 5.12 µM
- X more potent than ciprofloxacen [1]: 0.05
- X more potent than Amphotericin B (C. krusei ATCC 6258; C. krusei, ratio of molar IC50 to amphotericin B): 0.25
- C. krusei IC50 (C. krusei ATCC 6258; in vitro): 6.520 µg/mL
- IC50 (C. krusei ATCC 6258; in vitro, read-out: C. krusei IC50 (mol/L)): 5.96 µM
- X more potent than Amphotericin B [4]: 1.67
- C. neoformans IC50 [4]: 0.156 µg/mL
- IC50 [4]: 0.143 µM
- C. glabrata IC50 (C. glabrata ATCC 90030; in vitro): 1.217 µg/mL
- IC50 (C. glabrata ATCC 90030; in vitro, converted with molecular weight): 1.11 µM
- X more potent than Amphotericin B (C. glabrata ATCC 90030; molar IC50 ratio versus amphotericin B): 1.28

Compound: [Cu(Bn2PBCyclam)(OAc)]PF6•5H2O [BME10B]
- X more potent than Pentamidine [3]: 1.07
- L. donovani IC50 [3]: 3.64 µg/mL
- IC50 [3]: 4.96 µM
- S. aureus IC50 [1]: 5.670 µg/mL
- IC50 [1]: 7.73 µM
- X more potent than ciprofloxacen [1]: 0.04
- MRSa IC50 [2]: 5.350 µg/mL
- IC50 [2]: 7.3 µM
- X more potent than ciprofloxacen [2]: 0.03
- X more potent than Amphotericin B [4]: 0.01
- C. neoformans IC50 [4]: 13.810 µg/mL
- IC50 [4]: 18.8 µM

Compound: [Fe(Bn2PBCyclen)(C2H3O2)]PF6•1.2NH4PF6 [AW037]
- X more potent than Pentamidine [3]: 0.17
- L. donovani IC50 [3]: 26.63 µg/mL
- IC50 [3]: 31.4 µM
- S. aureus IC50 [1]: 4.940 µg/mL
- IC50 [1]: 5.83 µM
- X more potent than ciprofloxacen [1]: 0.05
- MRSa IC50 [2]: 9.480 µg/mL
- IC50 [2]: 11.2 µM
- X more potent than ciprofloxacen [2]: 0.02
- X more potent than Amphotericin B [4]: 0.02
- C. neoformans IC50 [4]: 8.400 µg/mL
- IC50 [4]: 9.9 µM

Compound: [Mn2(m-cyclam-homocyclen)][MnCl4]2•12H2O [AW047]
- S. aureus IC50 [1]: 5.380 µg/mL
- IC50 [1]: 4.18 µM
- X more potent than ciprofloxacen [1]: 0.07
- MRSa IC50 [2]: 7.850 µg/mL
- IC50 [2]: 6.09 µM
- X more potent than ciprofloxacen [2]: 0.03
- X more potent than Amphotericin B [4]: 0.08
- C. neoformans IC50 [4]: 3.770 µg/mL
- IC50 [4]: 2.93 µM

Compound: [Ni2(m-CB-Homocyclens)(OAc)1.9][PF6]2.1 [CDG038]
- X more potent than Pentamidine [3]: 0.29
- L. donovani IC50 [3]: 19.92 µg/mL
- IC50 [3]: 18.3 µM
- S. aureus IC50 [1]: 9.58 µg/mL
- IC50 [1]: 8.8 µM
- X more potent than ciprofloxacen [1]: 0.03
- MRSa IC50 [2]: 9.080 µg/mL
- IC50 [2]: 8.34 µM
- X more potent than ciprofloxacen [2]: 0.03
- X more potent than Amphotericin B [4]: 0.09
- C. neoformans IC50 [4]: 3.010 µg/mL
- IC50 [4]: 2.76 µM
